Measurements from patent US20150266857A1, “NOVEL 3-INDOL SUBSTITUTED DERIVATIVES, PHARMACEUTICAL COMPOSITIONS AND METHODS FOR USE” (iTeos Therapeutics, priority 2014, published 2015).
Counter-ions that a name gives are not always drawn.

Molecular target: T1, human glioblastoma A172 cells, naturally expressing hTDO2 (Homo sapiens, UniProt P48775)
T1 construct: human glioblastoma A172 cells, naturally expressing hTDO2; endogenous in cells; host or cells: human glioblastoma A172 cells (ATCC CRL-1620)
Experiment: Cellular assay for TDO2 activity, A172 cells
Assay type: cell-based
Conditions: overnight incubation, kynurenine in supernatant
Protocol: The compounds of formula I inhibit the activity of human TDO2 in cells that constitutively express TDO2, such as A172 cells. A172 is a cell line derived from human brain glioblastoma cells. The cells are available from the American Type Culture Collection (ATCC®) as CRL-1620™
The assay (adapted from Pilotte L et al., Proc Natl Acad Sci USA, 2012, 109(7), 2497-502) was performed in 96-well flat bottom plates seeded with human glioblastoma A172 cells, naturally expressing hTDO2 (prepared as described in Tilman et al., Mol Cancer, 2007, 17(6), 80), at a concentration of 1.25×10^4 cells/well in a final volume of 200 μL. To determine TDO, the cells were incubated overnight at 37° C. at 5% CO2 in IMDM (Invitrogen) supplemented with 2% FBS and 2% penicillin/streptomycin in the presence of the compounds of the present invention, at different concentrations.
The plates were then centrifuged 5 min at 1000 rpm, and 100 μL of the supernatant were collected in a conical plate, 30 uL of TCA 30% were added and a further centrifugated at 3000×g for 10 minutes. 100 μL of the supernatant were collected in a flat bottomed plate and 100 μL of 2% (w/v) 4-(dimethylamino)-benzaldehyde in acetic acid and incubated for 5 min at room temperature. Kynurenine concentrations were determined by measuring the absorbance at 480 nm. A standard curve was made with pure kynurenine. The TDO activity was measured as described above using ten serial concentrations of the compounds of the present invention. Data were fitted using the Prism™ software (GraphPad Software, Inc.) using standard parameters.

T1 sequence (P48775 whole entry): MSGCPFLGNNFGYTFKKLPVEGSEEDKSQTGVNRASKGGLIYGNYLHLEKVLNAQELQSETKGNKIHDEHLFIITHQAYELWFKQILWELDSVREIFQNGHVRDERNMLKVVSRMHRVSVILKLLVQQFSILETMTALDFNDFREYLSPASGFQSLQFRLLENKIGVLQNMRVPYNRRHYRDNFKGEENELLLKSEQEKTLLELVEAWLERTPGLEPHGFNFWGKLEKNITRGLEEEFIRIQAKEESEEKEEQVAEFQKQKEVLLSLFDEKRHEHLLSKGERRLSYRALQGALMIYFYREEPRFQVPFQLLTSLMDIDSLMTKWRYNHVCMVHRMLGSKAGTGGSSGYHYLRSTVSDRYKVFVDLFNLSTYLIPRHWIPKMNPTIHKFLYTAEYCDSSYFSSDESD

Structure (SMILES)	IC50
Nc1nc2ccc(-c3c[nH]c4cc(F)ccc34)cc2[nH]1 [Compound 41, 6-(6-fluoro-1H-indol-3-yl)-1H-benzo[d]imidazol-2-amine]	1090 nM
CS(=O)(=O)Nc1nc2ccc(-c3c[nH]c4cc(F)ccc34)cc2o1 [Compound 58, N-(6-(6-fluoro-1H-indol-3-yl)benzo[d]oxazol-2-yl)methanesulfonamide]	3770 nM
Fc1ccc2c(-c3ccc4oc(CN5CCNCC5)nc4c3)c[nH]c2c1 [Compound 61, 5-(6-fluoro-1H-indol-3-yl)-2-(piperazin-1-ylmethyl)benzo[d]oxazole]	459 nM
Fc1ccc2c(-c3ccc4oc(CN5CCOCC5)nc4c3)c[nH]c2c1 [Compound 63, 5-(6-fluoro-1H-indol-3-yl)-2-(morpholinomethyl)benzo[d]oxazole]	597 nM
NC(=O)CCn1c(=O)oc2cc(-c3c[nH]c4cc(F)ccc34)ccc21 [Compound 67, 3-(6-(6-fluoro-1H-indol-3-yl)-2-oxobenzo[d]oxazol-3(2H)-yl)propanamide]	2520 nM
NC(=O)Cn1c(=O)oc2ccc(-c3c[nH]c4cc(F)ccc34)cc21 [Compound 69, 2-(5-(6-fluoro-1H-indol-3-yl)-2-oxobenzo[d]oxazol-3(2H)-yl)acetamide]	3280 nM
NC(=O)CCn1c(=O)oc2ccc(-c3c[nH]c4cc(F)ccc34)cc21 [Compound 71]	3530 nM
Fc1ccc2c(-c3ccc4sccc4c3)c[nH]c2c1 [Compound 72, 3-(benzo[b]thiophen-5-yl)-6-fluoro-1H-indole]	442 nM
NCc1nc2ccc(-c3c[nH]c4cc(F)ccc34)cc2o1 [Compound 76, (6-(6-fluoro-1H-indol-3-yl)benzo[d]oxazol-2-yl)methanamine hydrochloride]	440 nM
Fc1ccc2c(-c3ccc4ccsc4c3)c[nH]c2c1 [Compound 79, 3-(benzo[b]thiophen-6-yl)-6-fluoro-1H-indole]	802 nM
CS(=O)(=O)CCc1nc2cc(-c3c[nH]c4cc(F)ccc34)ccc2o1 [Compound 80, 5-(6-fluoro-1H-indol-3-yl)-2-(2-(methylsulfonyl)ethyl)benzo[d]oxazole]	842 nM
NCc1nc2cc(-c3c[nH]c4cc(F)ccc34)ccc2o1 [Compound 81, (5-(6-fluoro-1H-indol-3-yl)benzo[d]oxazol-2-yl)methanamine]	1620 nM
Fc1ccc2c(-c3ccc4occc4c3)c[nH]c2c1 [Compound 82, 3-(benzofuran-5-yl)-6-fluoro-1H-indole]	602 nM
NC(=O)Cn1cnc2ccc(-c3c[nH]c4cc(F)ccc34)cc21 [Compound 84, 2-(6-(6-fluoro-1H-indol-3-yl)-1H-benzo[d]imidazol-1-yl)acetamide]	1020 nM
NC(=O)Cn1cnc2cc(-c3c[nH]c4cc(F)ccc34)ccc21 [Compound 85, 2-(5-(6-fluoro-1H-indol-3-yl)-1H-benzo[d]imidazol-1-yl)acetamide]	1330 nM
O=C(CCn1ncc2cc(-c3c[nH]c4cc(F)ccc34)ccc21)N1CCOCC1 [Compound 86, 3-(5-(6-fluoro-1H-indol-3-yl)-1H-indazol-1-yl)-1-morpholinopropan-1-one]	646 nM
O=C1Cc2ccc(-c3c[nH]c4cc(F)ccc34)cc2N1 [Compound 92, 6-(6-fluoro-1H-indol-3-yl)indolin-2-one]	508 nM
NC(=O)CCn1cnc2ccc(-c3c[nH]c4cc(F)ccc34)cc21 [Compound 93, 3-(6-(6-fluoro-1H-indol-3-yl)-1H-benzo[d]imidazol-1-yl)propanamide]	1150 nM
NC(=O)CCn1cnc2cc(-c3c[nH]c4cc(F)ccc34)ccc21 [Compound 94, 3-(5-(6-fluoro-1H-indol-3-yl)-1H-benzo[d]imidazol-1-yl)propanamide]	4640 nM
c1ccc2c(-c3ccc4[nH]ncc4c3)c[nH]c2c1 [Compound 104, 5-(1H-indol-3-yl)-1H-indazole]	464 nM
c1ccc2c(-c3ccc4cn[nH]c4c3)c[nH]c2c1 [Compound 108, 6-(1H-indol-3-yl)-1H-indazole]	599 nM
c1ccc2c(-c3ccc4ncoc4c3)c[nH]c2c1 [Compound 109, 6-(1H-indol-3-yl)benzo[d]oxazole]	446 nM
Clc1ccc2c(-c3ccc4ocnc4c3)c[nH]c2c1 [Compound 111, 5-(6-chloro-1H-indol-3-yl)benzo[d]oxazole]	19000 nM
Fc1ccc2c(-c3ccc4nc(S)oc4c3)c[nH]c2c1 [Compound 112, 6-(6-fluoro-1H-indol-3-yl)benzo[d]oxazole-2-thiol]	979 nM
CS(=O)(=O)NCc1nc2ccc(-c3c[nH]c4ccccc34)cc2o1 [Compound 114, N-((6-(1H-indol-3-yl)benzo[d]oxazol-2-yl)methyl)methanesulfonamide]	478 nM
c1ccc2c(-c3ccc4ocnc4c3)c[nH]c2c1 [Compound 118, 5-(1H-indol-3-yl)benzo[d]oxazole]	1530 nM
CS(=O)(=O)N1CCC(Cc2nc3ccc(-c4c[nH]c5cc(F)ccc45)cc3o2)CC1 [Compound 119, 6-(6-fluoro-1H-indol-3-yl)-2-((1-(methylsulfonyl)piperidin-4-yl)methyl)benzo[d]oxazole]	1020 nM
CS(=O)(=O)N1CCN(CCc2nc3ccc(-c4c[nH]c5cc(F)ccc45)cc3o2)CC1 [Compound 120, 6-(6-fluoro-1H-indol-3-yl)-2-(2-(4-(methylsulfonyl)piperazin-1-yl)ethyl)benzo[d]oxazole]	443 nM

These reach a lower IC50. Values come first.

IC50	Structure (SMILES)
372 nM	COc1nc2ccc(-c3c[nH]c4cc(F)ccc34)cc2o1 [Compound 116, 6-(6-fluoro-1H-indol-3-yl)-2-methoxybenzo[d]oxazole]
363 nM	CC(=O)NCc1nc2cc(-c3c[nH]c4cc(F)ccc34)ccc2o1 [Compound 73, N-((5-(6-fluoro-1H-indol-3-yl)benzo[d]oxazol-2-yl)methyl)acetamide]
351 nM	COCCS(=O)(=O)NCc1nc2ccc(-c3c[nH]c4cc(F)ccc34)cc2o1 [Compound 99, N-((6-(6-fluoro-1H-indol-3-yl)benzo[d]oxazol-2-yl)methyl)-2-methoxyethanesulfonamide]
349 nM	CN1CCC[C@H]1C(=O)NCc1nc2ccc(-c3c[nH]c4cc(F)ccc34)cc2o1 [Compound 115, (S)—N-((6-(6-fluoro-1H-indol-3-yl)benzo[d]oxazol-2-yl)methyl)-1-methylpyrrolidine-2-carboxamide]
340 nM	C[C@@H]1CN[C@@H](C)CN1CCc1nc2ccc(-c3c[nH]c4cc(F)ccc34)cc2o1 (relative stereo) [Compound 141, 2-(2-(trans-2,5-dimethylpiperazin-1-yl)ethyl)-6-(6-fluoro-1H-indol-3-yl)benzo[d]oxazole]
311 nM	CC(=O)N1CCC(c2nc3ccc(-c4c[nH]c5cc(F)ccc45)cc3o2)CC1 [Compound 56, 1-(4-(6-(6-fluoro-1H-indol-3-yl)benzo[d]oxazol-2-yl)piperidin-1-yl)ethanone]
298 nM	CN1CCN(C(=O)CCn2ncc3cc(-c4c[nH]c5cc(F)ccc45)ccc32)CC1 [Compound 87, 3-(5-(6-fluoro-1H-indol-3-yl)-1H-indazol-1-yl)-1-(4-methylpiperazin-1-yl)propan-1-one]
284 nM	Fc1ccc2c(-c3ccc4nc(CC5CCNCC5)oc4c3)c[nH]c2c1 [Compound 113, 6-(6-fluoro-1H-indol-3-yl)-2-(piperidin-4-ylmethyl)benzo[d]oxazole]
278 nM	NS(=O)(=O)NCc1nc2ccc(-c3c[nH]c4cc(F)ccc34)cc2o1 [Compound 117, Amino{[6-(6-fluoroindol-3-yl)benzoxazol-2-yl]methyl}sulfonamide]
240 nM	CS(=O)(=O)CCNC(=O)CCn1ncc2cc(-c3c[nH]c4cc(F)ccc34)ccc21 [Compound 90, 3-(5-(6-fluoro-1H-indol-3-yl)-1H-indazol-1-yl)-N-(2-(methylsulfonyl)ethyl)propanamide]
213 nM	O=C(CCn1ncc2cc(-c3c[nH]c4cc(F)ccc34)ccc21)N1CCNCC1 [Compound 91, 3-(5-(6-fluoro-1H-indol-3-yl)-1H-indazol-1-yl)-1-(piperazin-1-yl)propan-1-one]
205 nM	O=C(CCn1ncc2cc(-c3c[nH]c4cc(F)ccc34)ccc21)NCCO [Compound 89, 3-(5-(6-fluoro-1H-indol-3-yl)-1H-indazol-1-yl)-N-(2-hydroxyethyl)propanamide]
171 nM	Fc1ccc2c(-c3ccc4nc(C5CCNCC5)oc4c3)c[nH]c2c1 [Compound 55, 6-(6-fluoro-1H-indol-3-yl)-2-(piperidin-4-yl)benzo[d]oxazole]
170 nM	CN(C)CCNC(=O)CCn1ncc2cc(-c3c[nH]c4cc(F)ccc34)ccc21 [Compound 88, N-(2-(dimethylamino)ethyl)-3-(5-(6-fluoro-H-indol-3-yl)-1H-indazol-1-yl)propanamide]
154 nM	NC(=O)CCc1nc2ccc(-c3c[nH]c4cc(F)ccc34)cc2o1 [Compound 83, 3-(6-(6-fluoro-1H-indol-3-yl)benzo[d]oxazol-2-yl)propanamide]
